Laboratory results reported in paper PMC6318274, “Lattice engineering enables definition of molecular features allowing for potent small-molecule inhibition of HIV-1 entry” (Nature Communications, 2019).
“And” between values parts separate entries of the source, which are not always exact repeats. Equal values may be shown once. Read-outs that look alike come from different tables or passages of the source.

What was measured:
[1] = test system: HIV-1 Env-pseudoviruses (30-strain panel); test: Neutralization assay, cross-clade 30-strain panel (Env-pseudoviruses, TZM-bl target cells); type: cell-based
Procedure: Neutralization was measured using single-round-of-infection HIV-1 Env-pseudoviruses and TZM-bl target cells (ARP Cat No. #8129)[44],[45]. Compounds were prepared at 400 μM with 4% DMSO (dimethyl sulfoxide) in PBS (phosphate-buffered saline) and diluted 20 times as the starting concentration for serial dilution in the neutralization assays. […] After incubation at 37 °C for 2 days, infection of target cells was measured by luciferase activity. Neutralization curves were fit by nonlinear regression using a five-parameter hill slope equation[45].

SIVmac251.30.SG3 [2] = test system: SIVmac251.30.SG3; design: method as in earlier work; details: SIVmac251.30.SG3, clade NA; cited from earlier work
HIV-1 strain NL4-3 = details: cited from earlier work
SVA.MLV = test system: SVA.MLV; design: method as in earlier work; details: clade NA; cited from earlier work
[3] = biological target: BG505 DS-SOSIP.664 Env trimer (Human immunodeficiency virus 1, UniProt Q2N0S5, A430C/A498C/I200C/I556P/T330N/T602C, form not given); type: binding, HIV-1; details: ITC, 37 °C
SIVmac251.30.SG3 [4] = test: Neutralization assay, control virus SIVmac251.30.SG3; type: cell-based, SIV; details: Simian immunodeficiency virus; SIVmac251.30.SG3, clade NA
Procedure: Neutralization was measured using single-round-of-infection HIV-1 Env-pseudoviruses and TZM-bl target cells (ARP Cat No. #8129)[44],[45]. Compounds were prepared at 400 μM with 4% DMSO (dimethyl sulfoxide) in PBS (phosphate-buffered saline) and diluted 20 times as the starting concentration for serial dilution in the neutralization assays. Pseudoviruses of ten strains from HIV-1 clades A, B, and C were incubated with serial dilutions of drug compounds, then added to TZM-bl target cells which have a luciferase reporter gene. After incubation at 37 °C for 2 days, infection of target cells was measured by luciferase activity. Neutralization curves were fit by nonlinear regression using a five-parameter hill slope equation[45].

[5] = Human immunodeficiency virus 1, TZM-bl, 242-14 (Clade AG), read-out: IC50
[6] = Human immunodeficiency virus 1, TZM-bl, 247-23 (Clade D), read-out: IC50
[7] = Human immunodeficiency virus 1, TZM-bl, 0330.v4.c3 (Clade A), read-out: IC50
[8] = Human immunodeficiency virus 1, TZM-bl, 426c (Clade C), read-out: IC50
[9] = Human immunodeficiency virus 1, TZM-bl, 7165.18 (Clade B), read-out: IC50
[10] = Human immunodeficiency virus 1, TZM-bl, B41 (Clade B), read-out: IC50
[11] = Human immunodeficiency virus 1, TZM-bl, BJOX028000.10.3 (Clade AE), read-out: IC50
[12] = Human immunodeficiency virus 1, TZM-bl, BL01.DG (Clade B), read-out: IC50
[13] = Human immunodeficiency virus 1, TZM-bl, C4118.09 (Clade AE), read-out: IC50
[14] = Human immunodeficiency virus 1, TZM-bl, CAP210.E8 (Clade C), read-out: IC50
[15] = Human immunodeficiency virus 1, TZM-bl, CH119.10 (Clade BC), read-out: IC50
[16] = Human immunodeficiency virus 1, TZM-bl, CNE10 (Clade B), read-out: IC50
[17] = Human immunodeficiency virus 1, TZM-bl, CNE20 (Clade BC), read-out: IC50
[18] = Human immunodeficiency virus 1, TZM-bl, CNE56 (Clade AE), read-out: IC50
[19] = Human immunodeficiency virus 1, TZM-bl, DJ263.8 (Clade AG), read-out: IC50
[20] = Human immunodeficiency virus 1, TZM-bl, DU156.12 (Clade C), read-out: IC50
[21] = Human immunodeficiency virus 1, TZM-bl, Geomean, 30-strain panel, read-out: Geometric mean IC50
[22] = Human immunodeficiency virus 1, TZM-bl, KER2008.12 (Clade A), read-out: IC50
[23] = Human immunodeficiency virus 1, TZM-bl, MB201.A1 (Clade A), read-out: IC50
[24] = Human immunodeficiency virus 1, TZM-bl, NKU3006.ec1 (Clade D), read-out: IC50
[25] = Human immunodeficiency virus 1, TZM-bl, P0402.c2.11 (Clade G), read-out: IC50
[26] = Human immunodeficiency virus 1, TZM-bl, PVO.04 (Clade B), read-out: IC50
[27] = Human immunodeficiency virus 1, TZM-bl, R3265.c6 (Clade AE), read-out: IC50
[28] = Human immunodeficiency virus 1, TZM-bl, REJO.67 (Clade B), read-out: IC50
[29] = Human immunodeficiency virus 1, TZM-bl, T253-11 (Clade AG), read-out: IC50
[30] = Human immunodeficiency virus 1, TZM-bl, T280-5 (Clade AG), read-out: IC50
[31] = Human immunodeficiency virus 1, TZM-bl, ZM106.9 (Clade C), read-out: IC50

Compound: COc1cnc(-n2cnc(C)n2)c2[nH]cc(C(=O)C(=O)N3CCN(C(=O)c4ccccc4)CC3)c12 [BMS-626529]
- IC50 ([1]; Geomean, 30-strain panel, read-out: Geometric mean IC50): ~40 nM
- IC50 [1, 5]: 24 nM
- IC50 [1, 6]: 9 nM
- IC50 [1, 7]: 185 nM
- IC50 [1, 8]: 5 nM
- IC50 [1, 9]: 20 nM
- IC50 [1, 10]: 0.7 nM
- IC50 [1, 11]: > 20000 nM
- IC50 [1, 12]: 12400 nM
- IC50 [1, 13]: 6210 nM
- IC50 [1, 14]: 66 nM
- IC50 [1, 15]: 5 nM
- IC50 [1, 16]: 2 nM
- IC50 [1, 17]: 878 nM
- IC50 [1, 18]: > 20000 nM
- IC50 [1, 19]: 12 nM
- IC50 [1, 20]: 2 nM
- IC50 [1, 21]: > 40 nM
- IC50 [1, 22]: 758 nM
- IC50 [1, 23]: 474 nM
- IC50 [1, 24]: 2 nM
- IC50 [1, 25]: 17 nM
- IC50 [1, 26]: 0.9 nM
- IC50 [1, 27]: 5840 nM
- IC50 [1, 28]: 205 nM
- IC50 [1, 29]: 0.5 nM
- IC50 [1, 30]: 3 nM
- IC50 [1, 31]: 16 nM
- IC50 ([1]; Human immunodeficiency virus 1, TZM-bl, read-out: IC50): 5 nM
- IC50 (SIVmac251.30.SG3 [2]): > 20000 nM
- EC50 (HIV-1 strain NL4-3): 2.2 ± 0.6 nM
- IC50 (SVA.MLV): > 20000 nM
- -TΔS [3]: +7.7 kcal/mol
- ΔG [3]: -9.1 kcal/mol
- ΔH [3]: -16.8 kcal/mol

Compound: COc1cnc(-c2csc(C(=O)NCCO)n2)c2[nH]cc(C(=O)C(=O)N3CCC(=C(C#N)c4ccccc4)CC3)c12 [BMS-818251]
- IC50 ([1]; Human immunodeficiency virus 1, TZM-bl): < 0.3 nM and < 0.0002 µg/mL
- IC50 [1, 5]: < 0.3 nM
- IC50 ([1]; Human immunodeficiency virus 1, TZM-bl, 242-14.SG3 (Clade AG), read-out: IC50): < 0.2 ng/mL
- IC50 [1, 6]: < 0.3 nM
- IC50 ([1]; Human immunodeficiency virus 1, TZM-bl, 247-23.SG3 (Clade D), read-out: IC50): < 0.2 ng/mL
- IC50 [1, 7]: 4 nM
- IC50 ([1]; Human immunodeficiency virus 1, TZM-bl, 0330.v4.c3.SG3 (Clade A), read-out: IC50): 2.3 ng/mL
- IC50 [1, 8]: 0.4 nM
- IC50 ([1]; Human immunodeficiency virus 1, TZM-bl, 426c.SG3 (Clade C), read-out: IC50): < 0.2 ng/mL
- IC50 [1, 9]: 13 nM
- IC50 ([1]; Human immunodeficiency virus 1, TZM-bl, 7165.18.SG3 (Clade B), read-out: IC50): 7.4 ng/mL
- IC50 ([1]; Human immunodeficiency virus 1, TZM-bl, A03349M1.vrc4a.SG3 (Clade D), read-out: IC50): < 0.2 ng/mL
- IC50 [1, 10]: < 0.3 nM
- IC50 ([1]; Human immunodeficiency virus 1, TZM-bl, B41.SG3 (Clade B), read-out: IC50): < 0.2 ng/mL
- IC50 [1, 11]: 733 nM
- IC50 ([1]; Human immunodeficiency virus 1, TZM-bl, BJOX028000.10.3.SG3 (Clade AE), read-out: IC50): 418 ng/mL
- IC50 [1, 12]: 533 nM
- IC50 ([1]; Human immunodeficiency virus 1, TZM-bl, BL01.DG.SG3 (Clade B), read-out: IC50): 304 ng/mL
- IC50 [1, 13]: 89 nM
- IC50 ([1]; Human immunodeficiency virus 1, TZM-bl, C4118.09.SG3 (Clade AE), read-out: IC50): 50.7 ng/mL
- IC50 [1, 14]: 22 nM
- IC50 ([1]; Human immunodeficiency virus 1, TZM-bl, CAP210.E8.SG3 (Clade C), read-out: IC50): 12.5 ng/mL
- IC50 [1, 15]: < 0.3 nM
- IC50 ([1]; Human immunodeficiency virus 1, TZM-bl, CH119.10.SG3 (Clade BC), read-out: IC50): < 0.2 ng/mL
- IC50 [1, 16]: < 0.3 nM
- IC50 ([1]; Human immunodeficiency virus 1, TZM-bl, CNE10.SG3 (Clade B), read-out: IC50): < 0.2 ng/mL
- IC50 [1, 17]: 6 nM
- IC50 ([1]; Human immunodeficiency virus 1, TZM-bl, CNE20.SG3 (Clade BC), read-out: IC50): 3.4 ng/mL
- IC50 [1, 18]: 471 nM
- IC50 ([1]; Human immunodeficiency virus 1, TZM-bl, CNE56.SG3 (Clade AE), read-out: IC50): 268 ng/mL
- IC50 [1, 19]: < 0.3 nM
- IC50 ([1]; Human immunodeficiency virus 1, TZM-bl, DJ263.8.SG3 (Clade AG), read-out: IC50): < 0.2 ng/mL
- IC50 [1, 20]: < 0.3 nM
- IC50 ([1]; Human immunodeficiency virus 1, TZM-bl, DU156.12.SG3 (Clade C), read-out: IC50): < 0.2 ng/mL
- IC50 [1, 21]: ~2 nM
- IC50 [1, 22]: 11 nM
- IC50 ([1]; Human immunodeficiency virus 1, TZM-bl, KER2008.12.SG3 (Clade A), read-out: IC50): 6.3 ng/mL
- IC50 [1, 23]: 14 nM
- IC50 ([1]; Human immunodeficiency virus 1, TZM-bl, MB201.A1.SG3 (Clade A), read-out: IC50): 8 ng/mL
- IC50 [1, 24]: < 0.3 nM
- IC50 ([1]; Human immunodeficiency virus 1, TZM-bl, NKU3006.ec1.SG3 (Clade D), read-out: IC50): < 0.2 ng/mL
- IC50 [1, 25]: < 0.3 nM
- IC50 ([1]; Human immunodeficiency virus 1, TZM-bl, P0402.c2.11.SG3 (Clade G), read-out: IC50): < 0.2 ng/mL
- IC50 [1, 26]: < 0.3 nM
- IC50 ([1]; Human immunodeficiency virus 1, TZM-bl, PVO.04.SG3 (Clade B), read-out: IC50): < 0.2 ng/mL
- IC50 [1, 27]: 32 nM
- IC50 ([1]; Human immunodeficiency virus 1, TZM-bl, R3265.c6.SG3 (Clade AE), read-out: IC50): 18.2 ng/mL
- IC50 [1, 28]: 450 nM
- IC50 ([1]; Human immunodeficiency virus 1, TZM-bl, REJO.67.SG3 (Clade B), read-out: IC50): 256 ng/mL
- IC50 [1, 29]: < 0.3 nM
- IC50 ([1]; Human immunodeficiency virus 1, TZM-bl, T253-11.SG3 (Clade AG), read-out: IC50): < 0.2 ng/mL
- IC50 [1, 30]: < 0.3 nM
- IC50 ([1]; Human immunodeficiency virus 1, TZM-bl, T280-5.SG3 (Clade AG), read-out: IC50): < 0.2 ng/mL
- IC50 [1, 31]: 0.5 nM
- IC50 ([1]; Human immunodeficiency virus 1, TZM-bl, ZM106.9.SG3 (Clade C), read-out: IC50): 0.3 ng/mL
- IC50 ([1]; Human immunodeficiency virus 1, TZM-bl, geomean, 30-strain panel, read-out: Geometric mean IC50): < 0.2 ng/mL
- IC50 ([1]; Human immunodeficiency virus 1, TZM-bl, read-out: Geometric mean IC50): < 2 nM
- IC50 (SIVmac251.30.SG3 [4]): > 20000 nM
- -TΔS [3]: +4.5 kcal/mol
- ΔG [3]: -10.4 kcal/mol
- ΔH [3]: -14.9 kcal/mol
- Kd ([3]; read-out: Kd (affinity)): 47 nM
